Calls of active or inactive are those of the source. The rule behind the calls is not given here.
Target: Metabotropic glutamate receptor 4 (Homo sapiens) (UniProt Q14833)
Test: PubChem AID 2180
Conditions: CHO hmGluR4/Gqi5, calcium mobilization, glutamate CRC fold-shift

Metabotropic glutamate receptor 4 (Homo sapiens), sequence (Q14833 whole entry, looked up): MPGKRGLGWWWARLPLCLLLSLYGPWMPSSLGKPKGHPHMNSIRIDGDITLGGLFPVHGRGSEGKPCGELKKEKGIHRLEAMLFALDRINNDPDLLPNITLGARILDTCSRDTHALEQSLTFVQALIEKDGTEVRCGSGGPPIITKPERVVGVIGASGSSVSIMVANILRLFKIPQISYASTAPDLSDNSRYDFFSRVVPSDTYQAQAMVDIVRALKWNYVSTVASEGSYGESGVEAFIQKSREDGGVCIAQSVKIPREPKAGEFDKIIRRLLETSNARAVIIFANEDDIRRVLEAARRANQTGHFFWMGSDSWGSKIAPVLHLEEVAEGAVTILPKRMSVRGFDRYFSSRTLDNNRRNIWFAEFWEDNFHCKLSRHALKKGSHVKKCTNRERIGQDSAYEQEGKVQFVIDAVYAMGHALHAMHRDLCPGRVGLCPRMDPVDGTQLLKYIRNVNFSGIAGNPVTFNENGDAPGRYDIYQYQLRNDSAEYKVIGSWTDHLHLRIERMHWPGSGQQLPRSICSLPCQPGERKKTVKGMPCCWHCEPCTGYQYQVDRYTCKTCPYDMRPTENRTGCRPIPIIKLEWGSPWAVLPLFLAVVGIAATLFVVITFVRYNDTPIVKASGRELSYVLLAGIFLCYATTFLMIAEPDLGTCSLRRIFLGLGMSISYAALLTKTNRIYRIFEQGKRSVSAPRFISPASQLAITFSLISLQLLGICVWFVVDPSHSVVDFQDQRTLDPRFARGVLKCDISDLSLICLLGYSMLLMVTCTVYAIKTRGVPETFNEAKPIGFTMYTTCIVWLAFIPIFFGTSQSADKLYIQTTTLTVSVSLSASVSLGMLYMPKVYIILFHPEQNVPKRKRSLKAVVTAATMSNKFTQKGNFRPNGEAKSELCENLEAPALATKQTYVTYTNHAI

SMILES | Potency
COc1cc(NC(=O)c2ccccn2)ccc1C | 641 nM
O=C(Nc1ccc(Cl)c(C(F)(F)F)c1)c1ccccn1 | 6060 nM (inactive)
COc1cc(NC(=O)c2ccccn2)ccc1Cl | 381 nM
O=C(Nc1ccc(F)c(C(F)(F)F)c1)c1ccccn1 | 5160 nM (inactive)
COc1cc(NC(=O)c2ccccn2)ccc1F | 604 nM

Continued, values first:

Potency | SMILES
601 nM | O=C(Nc1cccc(Cl)c1)c1ccccn1
1600 nM | COc1ccc(NC(=O)c2ccccn2)cc1Cl

From PubChem BioAssay AID2180 (Vanderbilt High Throughput Screening Facility, 2009)
